Patent publication US11077167B2, “Agent for promoting skeletal muscle injury repair” (Osaka University, priority 2017, dated 2021)

System: angiogenesis
Experiment: Angiogenic activity
Details: truncated peptides compared with SVVYGLR; confirmed by the present inventors, no method given

| Substance | angiogenic activity |
| --- | --- |
| SVVYGL | retain the angiogenic activity of SVVYGLR |
| VVYGLR | retain the angiogenic activity of SVVYGLR |
